Tests used:
Assay type in all cases: cell-based, human
HeLa cells [1] = test: Epic label-free biosensor DMR assay of compound-induced signals in HeLa cells; settings: FIG. 9A
From the text: HeLa cells were obtained from American Type Cell Culture (Manassas, Va.). This cervical cancer cell line was maintained in regular serum medium (i.e., minimum essential medium (MEM) (Invitrogen) supplemented with 10% fetal bovine serum (FBS) and 1% Penicillin/streptomycin). To investigate the effects of purine depletion on the purinosome formation and dissociation, HeLa cells were maintained for at least two passages in “purine-depleted medium” prior cell assays. The purine depleted medium is a medium consisting of Roswell Park Memorial Institute 1640 (RPMI 1640) supplemented with dialyzed 5% FBS […]. FBS was dialyzed against 0.9% NaCl at 4° C. for ˜2 days using a 25 kDa MWCO dialysis membrane to remove purines. This process completely removes the purines normally present in FBS.
Cells were typically grown using ˜1 to 2×10^4 cells per well at passage 3 to 15 suspended in 50 μl of the corresponding culture medium in the biosensor microplate, and were cultured at 37° C. under air/5% CO2 for ˜1 day. The confluency for all cells at the time of assays was ˜100%.
(§1) Epic® wavelength interrogation system (Corning Inc., Corning, N.Y.) was used for whole cell sensing. This system consists of a temperature-control unit, an optical detection unit, and an on-board liquid handling unit with robotics. The detection unit is centered on integrated fiber optics, and enables kinetic measures of cellular responses with a time interval of ˜15 sec. The compound solutions were introduced by using the on-board liquid handling unit (i.e., pippetting).
The RWG biosensor is capable of detecting minute changes in local index of refraction near the sensor surface. Since the local index of refraction within a cell is a function of density and its distribution of biomass (e.g., proteins, molecular complexes), the biosensor exploits its evanescent wave to non-invasively detect ligand-induced dynamic mass redistribution in native cells. The evanescent wave extends into the cells and exponentially decays over distance, leading to a characteristic sensing volume of ˜150 nm, implying that any optical response mediated through the receptor activation only represents an average over the portion of the cell that the evanescent wave is sampling. The aggregation of many cellular events downstream the receptor activation determines the kinetics and amplitudes of a ligand-induced DMR.
(§2) For biosensor cellular assays, compound solutions were made by diluting the stored concentrated solutions with the HBSS (1× Hanks balanced salt solution, plus 20 mM Hepes, pH 7.1), and transferred into a 384 well polypropylene compound storage plate to prepare a compound source plate. Two compound source plates were made separately when a two-step assay was performed. In parallel, the cells were washed twice with the HBSS and maintained in 30 μl of the HBSS to prepare a cell assay plate. Both the cell assay plate and the compound source plate(s) were then incubated in the hotel of the reader system. After incubation the baseline wavelengths of all biosensors in the cell assay microplate were recorded and normalized to zero. Afterwards, a 2 to 10 min continuous recording was carried out to establish a baseline, and to ensure that the cells reached a steady state. Cellular responses were then triggered by transferring 10 μl of the compound solutions into the cell assay plate using the on-board liquid handler.
(§3) All studies were carried out at a controlled temperature (28° C.). At least two independent sets of experiments, each with at least three replicates, were performed.

HeLa cells [2] = test: Purinosome dynamics DMR screen, sequential order molecule, DMAT, TBB
From the text: A library of agonists for various different GPCRs were used to individually pretreat a confluent layer of Hela cells for about one hour, before sequential stimulation with DMAT and TBB, respectively. The responses were monitored using Epic® system.
A library of molecules targeting endogenous alpha2A and beta2 adrenergic receptors were used to individually pretreat a confluent layer of Hela cells for about one hour, before sequential stimulation with DMAT and TBB, respectively. The responses were monitored using Epic® system.
as §1, §2, §3
(§4) The upstream signaling pathways linking to the purinosome is unknown at the present time. To identify cellular targets and pathways that are involved in regulating purinosome dynamics, a library of agonists for a great number of G protein-coupled receptors and membrane bound receptor tyrosine kinases was made in house, and each agonist was used to stimulate a confluent layer of Hela cells, cultured using high initial seeding number (25k per well for 384 well Epic® cell culture compatible biosensor microplates) in purine rich medium (i.e., regular 10% FCS or FBS). The concentrations for all small organic molecules were 10 micromolar, whereas 1 micromolar for all small peptides, and 100 nanomolar for all protein factors (molecular weight >15k Da). The cellular responses to each agonist were recorded for about 1 hour, and used to determine the functional expression of their corresponding cognate receptor(s).
To examine the receptor whose signaling is involved in regulating the purinosome dynamics, Hela cells were pretreated individually with each agonist for about one hour, followed by sequential stimulation with DMAT (20 micromolar) and TBB (25 micromolar), each step about 1 hour.

HeLa cells [3] = test: Purinosome dynamics DMR screen, sequential order molecule, TBB, DMAT
From the text: A library of agonists for various different GPCRs were used to individually pretreat a confluent layer of Hela cells for about one hour, before sequential stimulation with TBB and DMAT, respectively. The responses were monitored using Epic® system.
(§5) (A) The dose-dependent DMR signals of Hela cells induced by alpha2A agonist clonidine. (B) The TBB DMR signal of Hela cells after pretreated with clonidine at different doses. (C) The dose-dependent DMR signals of pertussis toxin (PTX)-pretreated Hela cells induced by alpha2A agonist clonidine. (D) The TBB DMR signal of the PTX-pretreated Hela cells after stimulated with clonidine at different doses. The TBB concentration was 20 μM in both (C) and (D). The clonidine pretreatment occurred about one-hour before the TBB stimulation.
as §1, §2, §3, §4

Gi protein in Hela cells = settings: TBB 20 μM; clonidine at different doses; FIG. 9D
Experimental: as §5
Epic® wavelength interrogation system (Corning Inc., Corning, N.Y.) was used for whole cell sensing. This system consists of a temperature-control unit, an optical detection unit, and an on-board liquid handling unit with robotics. […]
For biosensor cellular assays, compound solutions were made by diluting the stored concentrated solutions with the HBSS (1× Hanks balanced salt solution, plus 20 mM Hepes, pH 7.1), and transferred into a 384 well polypropylene compound storage plate to prepare a compound source plate. […] Both the cell assay plate and the compound source plate(s) were then incubated in the hotel of the reader system. After incubation the baseline wavelengths of all biosensors in the cell assay microplate were recorded and normalized to zero. […]

[4] = GPCR/RTK agonist library, pretreated about one hour, order agonist, DMAT (20 micromolar), TBB (25 micromolar), FIG. 3
[5] = adrenergic receptor ligand library, order ligand, DMAT, TBB, FIG. 5

In the case of `Clc1cccc(Cl)c1N=C1NCCN1` [clonidine], the “DMR signal triggered by agonist in Hela cells” value (HeLa cells [1]) is reported as “dose-dependent and saturable DMR signal”, the “modulation of the DMAT DMR signal” value (HeLa cells [2]; [4]) is reported as “suppress” and the “modulation of the TBB DMR signal” value (HeLa cells [2]; [4]) is reported as “potentiate”. For the same compound, the “modulation of the DMAT signal” value (HeLa cells [2]; [5]) was “suppress”, the “modulation of the TBB signal” value (HeLa cells [2]; [5]) was “potentiate” and the “modulation of the TBB DMR signal” value (HeLa cells [3]; agonist library, order agonist, TBB, DMAT, FIG. 4) was “selectively potentiate”. For the same compound, the “effect of clonidine pretreatment on the TBB response” value (HeLa cells [3]; clonidine at different doses about one-hour before TBB, FIG. 9B) was “dose-dependent potentiation” and the “change in the TBB signal of the PTX-treated Hela cells” value (Gi protein in Hela cells) was “did not result in any significant change”.
